Data reported in US12370183B2, “Compositions and methods for treating malaria” (Rutgers, The State University of New Jersey, priority 2020, dated 2025).
Read-outs that look alike come from different tables or passages of the source.

Key:
[1] = test system: 3D7 strain of Plasmodium falciparum; assay: Potency in the 3D7 strain of Plasmodium falciparum (EC50); format: cell-based; conditions: Plasmodium falciparum
Source text: The present invention relates to methods of treating malaria with tetrahydrobenzonaphtyridine carboxanilide (TBN) derivatives and related pyrrolinones and hydrolysis products thereof. These compounds are active against Plasmodium falciparum strains that are resistant to multiple drugs currently on the market. The present invention further relates to novel compounds and pharmaceutical compositions comprising such compounds. The compounds have been synthesized and tested for their potency in the 3D7 strain of Plasmodium falciparum. Their cytotoxicity was also tested in the BJ human fibroblast line. No compounds show significant cytotoxicity.
(§1) A high-throughput screen performed against the Plasmodium parasite. About 8,000 compounds were screened. Each hit was tested against resistant P. falciparum variants K1, V1S, D10DD, ATP4 1247, and C2B. Potency against these assays assured that the chemotype acts through a mechanism distinct from that of halofantrine, chloroquine, mefloquine, pyrimethamine, proguanil, atovaquone, and (+)SJ733. The toxicity of the compounds was also measured by testing their lethality against a BJ cell line (human fibroblasts). No TBNs were toxic. A structure activity investigation was performed in order to improve the EC50 of the TBNs to the single-digit nanomolar range, as well as to increase the water solubility.
(§2) Substituents were installed at N−2 by using a variety of methods. Reductive alkylation (Abdel-Magid, A. F.; Mehrman, S. J. A Review on the Use of Sodium Triacetoxyborohydride in the Reductive Amination of Ketones and Aldehydes. Org. Process Res. Dev. 2006, 10 (5), 971-1031) was a dependable technique that produced over fifteen analogues. Conjugate additions and nucleophilic substitutions provided most of the others. A type of reductive alkylation that uses carboxylic acids instead of aldehydes (the Beller reduction) led to two analogues (Sorribes, I.; Junge, K.; Beller, M. Direct Catalytic N-Alkylation of Amines with Carboxylic Acids. J. Am. Chem. Soc. 2014, 136 (40), 14314-14319. Some of the compounds listed were synthesized through other means, or were derived from other TBNs. Compounds 66 and 128 were produced by the amidation of acids 132 and 133, which had the corresponding substitution already installed. TBNs 93, and 94 were produced from the Pfitzinger products formed from the condensation of isatin with (R)-1-(1-phenylethyl)piperidin-4-one (134) and (S)-1-(1-phenylethyl)piperidin-4-one (135), respectively.

[2] = test system: resistant P. falciparum variant K1; assay: Potency against resistant P. falciparum variant K1 (EC50); format: cell-based; conditions: Plasmodium falciparum, K1, read-out: K1 EC50 (μM)
Experimental: as §1, §2

[3] = 3D7, read-out: 3D7 Mean EC50 (μM)

Structure (SMILES) | EC50 [1, 3] | EC50 [2] | other results
Cn1ccnc1CN1CCc2nc3ccccc3c(C(=O)Nc3ccc(F)c(F)c3)c2C1 [Compound 127, N-(3,4-Difluorophenyl)-2-((1-methyl-1H-imidazol-2-yl)methyl)-1,2,3,4-tetrahydrobenzo[b][1,6]naphthyridine-10-carboxamide] | 10.1 ± 6.39 µM | – | –
O=C(Nc1ccc(F)c(F)c1)c1c2c(nc3ccccc13)CCN(CCOC1CCCCO1)C2 (stereo not shown) [Compound 102, N-(3,4-Difluorophenyl)-2-(2-((tetrahydro-2H-pyran-2-yl)oxy)ethyl)-1,2,3,4-tetrahydrobenzo[b][1,6]naphthyridine-10-carboxamide] | 0.441 ± 0.156 µM | 0.178 ± 0.0436 µM | –
CC(C)(O)CCN1CCc2nc3ccccc3c(C(=O)Nc3ccc(F)c(F)c3)c2C1 [Compound 116, N-(3,4-Difluorophenyl)-2-(3-hydroxy-3-methylbutyl)-1,2,3,4-tetrahydrobenzo[b][1,6]naphthyridine-10-carboxamide] | 2.01 ± 0.277 µM | 1.44 ± 0.337 µM | –
O=C(Nc1ccc(F)c(F)c1)c1c2c(nc3ccccc13)CCN(CCc1ccccn1)C2 [Compound 98, N-(3,4-Difluorophenyl)-2-(2-(pyridin-2-yl)ethyl)-1,2,3,4-tetrahydrobenzo[b][1,6]naphthyridine-10-carboxamide] | 0.329 ± 0.0232 µM | – | –
CC(c1ccccn1)N1CCc2nc3c(c(C(=O)Nc4ccc(F)c(F)c4)c2C1)CCCC3 (stereo not shown) [Compound 140, N-(3,4-Difluorophenyl)-2-(1-(pyridin-2-yl)ethyl)-1,2,3,4,6,7,8,9-octahydrobenzo[b][1,6]naphthyridine-10-carboxamide] | 1.5 ± 0.389 µM | 0.558 ± 0.123 µM | EC50 ([1]; 3D7, read-out: 3D7 Mean EC50 of the TBN (μM)): 0.0603 ± 0.0234 µM
CC(C)N1CCc2nc3ccccc3c(C(=O)Nc3ccc(F)c(F)c3)c2C1 [Compound 96, N-(3,4-Difluorophenyl)-2-isopropyl-1,2,3,4-tetrahydrobenzo[b][1,6]naphthyridine-10-carboxamide] | 0.215 ± 0.269 µM | 0.177 µM | –
CC(=O)O[C@H]1CO[C@H]2[C@@H]1OC[C@@H]2Oc1cccc(NC(=O)c2c3c(nc4ccccc24)CCN(CCc2ccccc2)C3)c1 [Compound 147, (3S,3aR,6S,6aR)-6-(3-(2-Phenethyl-1,2,3,4-tetrahydrobenzo[b][1,6]naphthyridine-10-carboxamido)phenoxy)hexahydrofuro[3,2-b]furan-3-yl acetate] | – | – | EC50 ([1]; 3D7, read-out: potency (EC50)): 3.87 µM
O=C(Nc1ccc(F)c(F)c1)c1c2c(nc3ccccc13)CCN(Cc1ccccn1)C2 [Compound 105, N-(3,4-Difluorophenyl)-2-(pyridin-2-ylmethyl)-1,2,3,4-tetrahydrobenzo[b][1,6]naphthyridine-10-carboxamide] | 0.456 ± 0.0964 µM | 0.129 µM | –
O=C(Nc1ccc(F)c(F)c1)c1c2c(nc3ccccc13)CCN(CCCO)C2 [Compound 122, N-(3,4-Difluorophenyl)-2-(3-hydroxypropyl)-1,2,3,4-tetrahydrobenzo[b][1,6]naphthyridine-10-carboxamide] | 6.81 ± 2.54 µM | 4.64 ± 1.55 µM | –
CN(C)CCN1CCc2nc3ccccc3c(C(=O)Nc3ccc(F)c(F)c3)c2C1 [Compound 124, N-(3,4-Difluorophenyl)-2-(2-(dimethylamino)ethyl)-1,2,3,4-tetrahydrobenzo[b][1,6]naphthyridine-10-carboxamide] | 8.54 ± 1.84 µM | > 19.2 µM | –
O=C(Nc1ccc(F)c(F)c1)c1c2c(nc3ccccc13)CCN(CC1CC1)C2 [Compound 101, 2-(Cyclopropylmethyl)-N-(3,4-difluorophenyl)-1,2,3,4-tetrahydrobenzo[b][1,6]naphthyridine-10-carboxamide] | 0.429 ± 0.303 µM | 0.272 µM | –
CCN1CCc2nc3ccccc3c(C(=O)Nc3ccc(F)c(F)c3)c2C1 [Compound 128, N-(3,4-Difluorophenyl)-2-ethyl-1,2,3,4-tetrahydrobenzo[b][1,6]naphthyridine-10-carboxamide] | > 12.2 µM | – | –
CC(C)(C)OC(=O)N1CCC(N2CCc3nc4ccccc4c(C(=O)Nc4ccc(F)c(F)c4)c3C2)CC1 [Compound 89, tert-Butyl 4-(10-((3,4-difluorophenyl)carbamoyl)-3,4-dihydrobenzo[b][1,6]naphthyridin-2(1H)-yl)piperidine-1-carboxylate] | 0.0257 ± 0.00583 µM | – | –
O=C(Nc1ccc(F)c(F)c1)c1c2c(nc3cc(Cl)ccc13)CCN(CCc1ccccc1)C2 [Compound 157, 7-Chloro-N-(3,4-difluorophenyl)-2-phenethyl-1,2,3,4-tetrahydrobenzo[b][1,6]naphthyridine-10-carboxamide] | 0.0179 ± 0.01 µM | – | –
CCCCN1CCc2nc3ccccc3c(C(=O)Nc3ccc(F)c(F)c3)c2C1 [Compound 99, 2-Butyl-N-(3,4-difluorophenyl)-1,2,3,4-tetrahydrobenzo[b][1,6]naphthyridine-10-carboxamide] | 0.37 ± 0.376 µM | 0.102 µM | –
C[C@H](c1ccccc1)N1CCc2nc3ccccc3c(C(=O)Nc3ccc(F)c(F)c3)c2C1 [Compound 93, (R)—N-(3,4-Difluorophenyl)-2-(1-phenylethyl)-1,2,3,4-tetrahydrobenzo[b][1,6]naphthyridine-10-carboxamide] | 0.131 ± 0.00623 µM | 0.064 µM | –
O=C(Nc1ccc(F)c(F)c1)c1c2c(nc3ccccc13)CCN(Cc1cncc(F)c1)C2 [Compound 115, N-(3,4-Difluorophenyl)-2-((5-fluoropyridin-3-yl)methyl)-1,2,3,4-tetrahydrobenzo[b][1,6]naphthyridine-10-carboxamide] | 1.96 ± 2.34 µM | – | –
O=C(Nc1ccc(F)c(F)c1)c1c2c(nc3ccccc13)CCN(CCN1C(=O)c3ccccc3C1=O)C2 [Compound 121, N-(3,4-Difluorophenyl)-2-(2-(1,3-dioxoisoindolin-2-yl)ethyl)-1,2,3,4-tetrahydrobenzo[b][1,6]naphthyridine-10-carboxamide] | 3.95 ± 1.07 µM | – | –
CCOCC(=O)N1CCc2nc3ccccc3c(C(=O)Nc3ccc(F)c(F)c3)c2C1 [Compound 119, N-(3,4-Difluorophenyl)-2-(2-ethoxyacetyl)-1,2,3,4-tetrahydrobenzo[b][1,6]naphthyridine-10-carboxamide] | 3.49 ± 0.831 µM | – | –
COC(=O)CN1CCc2nc3ccccc3c(C(=O)Nc3ccc(F)c(F)c3)c2C1 [Compound 125, Methyl 2-(10-((3,4-difluorophenyl)carbamoyl)-3,4-dihydrobenzo[b][1,6]naphthyridin-2(1H)-yl)acetate] | 9.11 ± 7.61 µM | – | –
O=C(Nc1ccc(F)c(F)c1)c1c2c(nc3ccccc13)CCNC2 [Compound 88, N-(3,4-Difluorophenyl)-1,2,3,4-tetrahydrobenzo[b][1,6]naphthyridine-10-carboxamide] | 10.3 ± 10.2 µM | – | –
O=C(Nc1ccc(F)c(F)c1)c1c2c(nc3ccccc13)CCN(CC(F)(F)F)C2 [Compound 123, N-(3,4-Difluorophenyl)-2-(2,2,2-trifluoroethyl)-1,2,3,4-tetrahydrobenzo[b][1,6]naphthyridine-10-carboxamide] | 7.69 ± 8.61 µM | – | –
Cn1ccc(CN2CCc3nc4ccccc4c(C(=O)Nc4ccc(F)c(F)c4)c3C2)n1 [Compound 114, N-(3,4-Difluorophenyl)-2-((1-methyl-1H-pyrazol-3-yl)methyl)-1,2,3,4-tetrahydrobenzo[b][1,6]naphthyridine-10-carboxamide] | 1.89 ± 0.817 µM | – | –
Cn1cnc(CN2CCc3nc4ccccc4c(C(=O)Nc4ccc(F)c(F)c4)c3C2)c1 [Compound 117, N-(3,4-Difluorophenyl)-2-((1-methyl-1H-imidazol-4-yl)methyl)-1,2,3,4-tetrahydrobenzo[b][1,6]naphthyridine-10-carboxamide] | 2.4 ± 1.39 µM | – | –
O=C(Nc1ccc(F)c(F)c1)c1c2c(nc3ccccc13)CCN(Cc1ncccc1F)C2 [Compound 118, N-(3,4-difluorophenyl)-2-((3-fluoropyridin-2-yl)methyl)-1,2,3,4-tetrahydrobenzo[b][1,6]naphthyridine-10-carboxamide] | 3.41 ± 2.9 µM | – | –
CS(=O)(=O)CCN1CCc2nc3ccccc3c(C(=O)Nc3ccc(F)c(F)c3)c2C1 [Compound 130, N-(3,4-Difluorophenyl)-2-(2-(methylsulfonyl)ethyl)-1,2,3,4-tetrahydrobenzo[b][1,6]naphthyridine-10-carboxamide] | > 14.7 µM | – | –
O=C1c2c3c(nc4cc(Cl)ccc24)CCN(CCc2ccccc2)C3N1c1ccc(F)c(F)c1 (stereo not shown) [Compound 172, 8-Chloro-2-(3,4-difluorophenyl)-3-phenethyl-2a,3,4,5-tetrahydrobenzo[b]pyrrolo[4,3,2-de][1,6]naphthyridin-1(2H)-one] | 0.0071 ± 0.000461 µM | – | EC50 ([1]; 3D7): 0.0071 µM
O=C(Nc1ccc(F)c(F)c1)c1c2c(nc3ccc(Cl)cc13)CCN(CCc1ccccc1)C2 [Compound 158, 8-Chloro-N-(3,4-difluorophenyl)-2-phenethyl-1,2,3,4-tetrahydrobenzo[b][1,6]naphthyridine-10-carboxamide] | 0.0153 ± 0.00774 µM | – | –
